Laboratory results taken from publication PMC8508980, “Design, Synthesis and Anticancer Profile of New 4-(1H-benzo[d]imidazol-1-yl)pyrimidin-2-amine-Linked Sulfonamide Derivatives with V600EBRAF Inhibitory Effect” (International Journal of Molecular Sciences, 2021).

Experiments:
Assay in all cases: NCI 60 cell line screen
Format in all cases: cell-based
[1] = system: SF-268; settings: Homo sapiens; SF-268, CNS-Cancer; read-out: Percent growth
Method: (§1) Anticancer profiling over a panel of 60 cancer cell lines was carried out at the National Cancer Institute (NCI), Bethesda, Maryland, USA, https://dtp.cancer.gov/discovery_development/nci-60/methodology.htm (Last visit 22 September 2021), using the standard procedure (detailed procedure is located in the Supplementary Information page 50 s).
(§2) NCI standard procedure for 60 cell lines assay
(§3) The human tumor cell lines of the cancer screening panel are grown in RPMI 1640 mediu m containing 5% fetal bovine serum and 2 mM L-glutamine. For a typical screening experiment, cells are inoculated into 96 well microtiter plates in 100 μL at plating densities ranging from 5,000 to 40,000 cells/well depending on the doubling time of individual cell lines. After cell inoculation, the microtiter plates are incubated at 37° C, 5 % CO2, 95 % air and 100 % relative humidity for 24 h prior to addition of experimental drugs.
(§4) After 24 h, two plates of each cell line are fixed in situ with TCA, to represent a measurement of the cell population for each cell line at the time of drug addition (Tz). Experimental drugs are solubilized in dimethyl sulfoxide at 400-fold the desired final maximum test concentration (10 µM) and stored frozen prior to use. At the time of drug addition, an aliquot of frozen concentrate is thawed and diluted to twice the desired final maximum test concentration with co mp lete medium containing 50 μg/ml gentamicin. Additional four, 10-fold or ½ log serial dilutions are made to provide a total of five drug concentrations plus control. Aliquots of 100 μl of these different drug dilutions are added to the appropriate microtiter wells already containing 100 μl of medium, resulting in the required final drug concentrations.
(§5) Following drug addition, the plates are incubated for an additional 48 h at 37°C, 5 % CO2, 95 % air, and 100 % relative humidity. For adherent cells, the assay is terminated by the addition of cold TCA. Cells are fixed in situ by the gentle addition of 50 μl of cold 50 % (w/v) TCA (final concentration, 10 % TCA) and incubated for 60 minutes at 4°C. The supernatant is discarded, and the plates are washed five times with tap water and air dried. Sulforhodamine B (SRB) solution (100 μl) at 0.4 % (w/v) in 1 % acetic acid is added to each well, and plates are incubated for 10 minutes at room temperature. After staining, unbound dye is removed by washing five times with 1 % acetic acid and the plates are air dried. Bound stain is subsequently solubilized with 10 mM trizma base, and the absorbance is read on an automated plate reader at a wavelength of 515 nm. For suspension cells, the methodology is the same except that the assay is terminated by fixing settled cells at the bottom of the wells by g ently adding 50 μl of 80 % TCA (final concentration, 16 % TCA). Using the seven absorbance measurements [time zero, (Tz), control growth, (C), and test growth in the presence of drug at the five concentration levels (Ti)], the percentage growth is calculated at each of the drug concentrations levels. Percentage growth inhibition is calculated as:
(§6) [(Ti-Tz)/(C-Tz)] x 100 for concentrations for which Ti>/=Tz
(§7) [(Ti-Tz)/Tz] x 100 for concentrations for which Ti<Tz.
(§8) Three dose response parameters are calculated for each experimental agent. Growth inhibition of […]
(§9) resulting in a 50% reduction in the net protein increase (as measured by SRB staining) in control cells during the drug incubation. The drug concentration resulting in total growth inhibition […]
(§10) (TGI) is calculated from Ti = Tz.

[2] = system: TK-10; settings: Homo sapiens; TK-10, Renal Cancer; read-out: Percent growth
Method: as §1, §2, §3, §4, §5, §6, §7, §8, §9, §10

[3] = system: SK-MEL-2; settings: Homo sapiens; SK-MEL-2, Melanoma; read-out: Percent growth
Method: as §1, §2, §3, §4, §5, §6, §7, §8, §9, §10

[4] = system: MALME-3M; settings: Homo sapiens, Melanoma, read-out: Percent growth
Method: as §1, §2, §3, §4, §5, §6, §7, §8, §9, §10

[5] = system: ACHN; settings: Homo sapiens, Renal Cancer, read-out: Percent growth
Method: as §1, §2, §3, §4, §5, §6, §7, §8, §9, §10

[6] = system: HOP-62; settings: Homo sapiens; HOP-62, Non-Small Cell Lung Cancer; read-out: Percent growth
Method: as §1, §2, §3, §4, §5, §6, §7, §8, §9, §10

[7] = system: OVCAR-5; settings: Homo sapiens; OVCAR-5, Ovarian Cancer; read-out: Percent growth
Method: as §1, §2, §3, §4, §5, §6, §7, §8, §9, §10

[8] = system: OVCAR-8; settings: Homo sapiens; OVCAR-8, Ovarian Cancer; read-out: Percent growth
Method: as §1, §2, §3, §4, §5, §6, §7, §8, §9, §10

[9] = system: UACC-62; settings: Homo sapiens; UACC-62, Melanoma; read-out: Percent growth
Method: as §1, §2, §3, §4, §5, §6, §7, §8, §9, §10

[10] = system: OVCAR-3; settings: Homo sapiens; OVCAR-3, Ovarian Cancer; read-out: Percent growth
Method: as §1, §2, §3, §4, §5, §6, §7, §8, §9, §10

[11] = system: DU-145; settings: Homo sapiens; DU-145, Prostate Cancer; read-out: Percent growth
Method: as §1, §2, §3, §4, §5, §6, §7, §8, §9, §10

[12] = system: SN12C; settings: Homo sapiens, Renal Cancer, read-out: Percent growth
Method: as §1, §2, §3, §4, §5, §6, §7, §8, §9, §10

[13] = system: NCI-H322M; settings: Homo sapiens, Non-Small Cell Lung Cancer, read-out: Percent growth
Method: as §1, §2, §3, §4, §5, §6, §7, §8, §9, §10

[14] = system: MDA-MB-231/ATCC; settings: Homo sapiens, Breast Cancer, read-out: Percent growth
Method: as §1, §2, §3, §4, §5, §6, §7, §8, §9, §10

[15] = system: A549/ATCC; settings: Homo sapiens, Non-Small Cell Lung Cancer, read-out: Percent growth
Method: as §1, §2, §3, §4, §5, §6, §7, §8, §9, §10

[16] = system: HL-60(TB); settings: Homo sapiens, Leukemia, read-out: Percent growth
Method: as §1, §2, §3, §4, §5, §6, §7, §8, §9, §10

[17] = system: MDA-MB-435; settings: Homo sapiens; MDA-MB-435, Melanoma; read-out: Percent growth
Method: as §1, §2, §3, §4, §5, §6, §7, §8, §9, §10

[18] = system: CCRF-CEM; settings: Homo sapiens, Leukemia, read-out: Percent growth
Method: as §1, §2, §3, §4, §5, §6, §7, §8, §9, §10

[19] = system: SNB-19; settings: Homo sapiens; SNB-19, CNS-Cancer; read-out: Percent growth
Method: as §1, §2, §3, §4, §5, §6, §7, §8, §9, §10

[20] = system: LOX IMVI; settings: Homo sapiens, Melanoma, read-out: Percent growth
Method: as §1, §2, §3, §4, §5, §6, §7, §8, §9, §10

[21] = system: SK-OV-3; settings: Homo sapiens; SK-OV-3, Ovarian Cancer; read-out: Percent growth
Method: as §1, §2, §3, §4, §5, §6, §7, §8, §9, §10

[22] = system: IGROV1; settings: Homo sapiens, IGROV-1; IGROV1, Ovarian Cancer; read-out: Percent growth
Method: as §1, §2, §3, §4, §5, §6, §7, §8, §9, §10

[23] = system: BT-549; settings: Homo sapiens; BT-549, Breast Cancer; read-out: Percent growth
Method: as §1, §2, §3, §4, §5, §6, §7, §8, §9, §10

| Structure (SMILES) | activity at 10 µM [1] | activity at 10 µM [2] | activity at 10 µM [3] | activity at 10 µM [4] | activity at 10 µM [5] | activity at 10 µM [6] | activity at 10 µM [7] | activity at 10 µM [8] | activity at 10 µM [9] | activity at 10 µM [10] | activity at 10 µM [11] | activity at 10 µM [12] | activity at 10 µM [13] | activity at 10 µM [14] | activity at 10 µM [15] | activity at 10 µM [16] | activity at 10 µM [17] | activity at 10 µM [18] | activity at 10 µM [19] | activity at 10 µM [20] | also measured |
| --- | --- | --- | --- | --- | --- | --- | --- | --- | --- | --- | --- | --- | --- | --- | --- | --- | --- | --- | --- | --- | --- |
| O=S(=O)(NCCNc1nccc(-n2cnc3ccccc32)n1)c1ccc(Br)cc1 [12d, N-(2-((4-(1H-benzo [d]imidazol-1-yl)pyrimidin-2-yl)amino)ethyl)-4-bromobenzenesulfonamide] | 91.2% | 103% | 108% | 103% | 93.6% | 87.2% | 94% | 95.6% | 82.8% | 103% | 99.9% | 91.5% | 107% | 88.2% | 100% | 114% | 108% | 101% | 101% | 99.1% | activity at 10 µM [21]: 99.9%; activity at 10 µM [22]: 90.7%; activity at 10 µM [23]: 115% |
| O=S(=O)(NCCCNc1nccc(-n2cnc3ccccc32)n1)c1cccc2ccccc12 [12n, N-(3-((4-(1H-benzo [d]imidazol-1-yl)pyrimidin-2-yl)amino)propyl)naphthalene-1-sulfonamide] | 86.8% | 95.7% | 97.8% | 98.4% | 87.1% | 87.1% | 96.3% | 82.5% | 62% | 96.8% | 94.5% | 85.9% | 103% | 83.1% | 86.3% | 101% | 93.4% | 70.9% | 94.2% | 85.6% | activity at 10 µM [21]: 92.5%; activity at 10 µM [22]: 98.1%; activity at 10 µM [23]: 88.2% |
| O=S(=O)(NCCNc1nccc(-n2cnc3ccccc32)n1)c1ccc(C(F)(F)F)cc1 [12e, N-(2-((4-(1H-benzo [d]imidazol-1-yl)pyrimidin-2-yl)amino)ethyl)-4-(trifluoromethyl)benzenesulfonamide] | 59.5% | 63.4% | 67.8% | 71.4% | 60.8% | 66.1% | 86.2% | 63.5% | 42.4% | 72.9% | 71.8% | 72.5% | 85.3% | 64% | 55.4% | 73.8% | 64.4% | 57.6% | 69.8% | 57.4% | activity at 10 µM [21]: 62.2%; activity at 10 µM [22]: 66.4%; activity at 10 µM [23]: 53.1% |
| O=S(=O)(NCCCNc1nccc(-n2cnc3ccccc32)n1)c1ccc(C(F)(F)F)cc1 [12l, N-(3-((4-(1H-benzo [d]imidazol-1-yl)pyrimidin-2-yl)amino)propyl)-4-(trifluoromethyl) benzenesulfonamide] | 66.5% | 81.5% | 91% | 94% | 79% | 77.3% | 87.2% | 60% | 64.1% | 81.2% | 83.5% | 80.5% | 89.9% | 68.7% | 79% | 89% | 72.1% | 51.9% | 83.4% | 72.3% | activity at 10 µM [21]: 80.3%; activity at 10 µM [22]: 74.3%; activity at 10 µM [23]: 62.9% |
| COc1ccc(S(=O)(=O)NCCCNc2nccc(-n3cnc4ccccc43)n2)cc1 [12m, N-(3-((4-(1H-benzo [d]imidazol-1-yl)pyrimidin-2-yl)amino)propyl)-4-methoxy benzenesulfonamide] | 91.6% | 103% | 103% | 107% | 88.2% | 94.8% | 99.6% | 93.7% | 76.3% | 105% | 100% | 92.4% | 104% | 84.1% | 106% | 110% | 98.7% | 91.4% | 100% | 93.4% | activity at 10 µM [21]: 96.2%; activity at 10 µM [22]: 91.5%; activity at 10 µM [23]: 92.9% |
| O=S(=O)(NCCCNc1nccc(-n2cnc3ccccc32)n1)c1ccccc1 [12h, N-(3-((4-(1H-benzo [d]imidazol-1-yl)pyrimidin-2-yl)amino)propyl)benzenesulfonamide] | 91.7% | 103% | 108% | 108% | 95.7% | 96.9% | 99.1% | 84% | 85% | 106% | 99.2% | 94.3% | 109% | 92.4% | 97.6% | 104% | 95.5% | 88.1% | 103% | 91.7% | activity at 10 µM [21]: 105%; activity at 10 µM [22]: 107%; activity at 10 µM [23]: 96.5% |
